Common to all, as to assay type: in vivo, mouse
The test system of series [1] is Ndufs4(KO) mice. Put plainly: Longitudinal assessment of neurological disease symptoms (clasping, ataxia, circling). As to the method: Longitudinal assessments of neurological disease symptoms. Clasping, ataxia, and circling were assessed by visual scoring, as previously described. As disease progresses in the Ndufs4(KO) mice animals display intermittent/transient improvement of symptoms. […] For observational assessments, lab-wide quality control discussions occurred frequently to ensure consistency between technicians/researchers. Technicians contributed equally to each treatment group to minimize any potential bias between individuals.

In series [2] the test system is Ndufs4(KO) mice. Put plainly: Body weight, growth and cachexia onset. As to the method: Ndufs4(+/−) mice were bred to produce Ndufs4(KO) (Ndufs4(−/−)) offspring. Mice were weaned at 20-21 days of age. Ndufs4(KO) animals were housed with a minimum of one control littermate for warmth and stimulation. Mice were weighed, and health assessed, a minimum of 3 times per week, every other day (daily for IP injected mice, see herein). Where longitudinal blood point-of-care data was collected, this was performed during these health checks. Wetted chow in a dish on the bottom of each cage, and in-cage water bottles, were provided to all cages housing Ndufs4(KO) mice following the onset of disease so that the ability to find or reach food or water was not a limiting factor for survival.
Cachexia in FIG. 4H and FIG. 6E is the day of life when weight peaks prior to the progressive weight loss which occurs in untreated Ndufs4(KO) animals.

Series [3] relates to Ndufs4(KO) mice. As to the kind of experiment: Point-of-care blood glucose by age. An excerpt: Point-of-care glucose and lactate testing. Blood glucose and lactate measurements were collected using point-of-care meters (Prodigy Autocode® glucose meter, product #51850-3466188, Prodigy® Diabetes Care, LLC, Charlotte, NC; lactate assay meter, product #40828, Nova Biomedical, Waltham, MA) and the tail-prick method, as previously described (Stokes et al. Elife 2021; 10:e65400).

Series [4] concerns Ndufs4(KO) mice. As to the kind of experiment: Respiratory measurements by whole-body plethysmography. The settings on record: 300 mg/kg/day. As to the method: Respiratory measurements. Breathing parameters were recorded from alert, unrestrained, adult (P60) mice using whole-body plethysmography. Paired 300 ml recording and reference chambers were continuously ventilated (150 ml/min) with either normal air (79% nitrogen and 21% oxygen) or a hypercapnic gas mixture (74% nitrogen, 21% oxygen, and 5% CO2). Pressure differences between the recording and reference chambers were measured (Buxco Respiratory Products) and digitized (Axon Instruments) to visualize respiratory pattern, and simultaneous video recordings were performed to differentiate resting breathing activity from exploratory sniffing and grooming behaviors. Untreated and treated (pexidartinib 300 mg/kg/day) control and Ndufs4(KO) mice were allowed to acclimate to the chambers for 30-40 min prior to acquisition of 35 min of respiratory activity in normal air. The respiratory response to hypercapnia was then tested by ventilating the chambers with hypercapnic gas for 15 min. Respiratory frequency, and breath-to-breath irregularity scores (irreg.score=ABS((N-(N−1))/N)) of frequency and amplitude (peak inspiratory airflow) were quantified during periods of resting breathing (pClamp10 software). During hypercapnic challenges, only data during the final 5 min of the 15 min period were analyzed. […]

For series [5], the system named is Ndufs4(KO) mice. Put plainly: Rotarod induced seizures. As to the method:
Rotarod and rotarod seizures. Rotarod assays were performed using a Med Associates Inc. (Fairfax, VT) ENV-571M single lane rotarod with a black mat installed in the floor of the lane to reduce visibility of the bottom. Assays were performed by placing animals onto an already rotating rod and timing latency to fall, with a steady rotation speed set to 6 rpm (controlled by attached laptop and Med Associates software). The maximum time of each trial was 10 min, with the trial ending at that time if mice were still on the rotarod. For each assay, three trials were performed, with a minimum of 5 min between each assay. The best of the three trials was reported for the rotarod data. As detailed in the text and figure legends, rotarod was performed each 10 days of age from P30; mice in a given age group were the reported age +/−1 day.
Mice were monitored throughout each assay for seizure activity, and rotarod performance trials were ended if a seizure was observed. […]

Series [6] deals with Ndufs4(KO) mice. Put plainly: Isoflurane induced hyperlactemia assay. Conditions: 0.4% isoflurane for 30 min, P50, 300 mg/kg/d. As to the method: Isoflurane induced hyperlactemia assays. All of these experiments were performed at P50. Mice were subject to normal daily monitoring (see survival studies) up until P50. At P50, baseline blood glucose, lactate, and […] (β-HB) levels were measured using point-of-care meters using the tail-prick method, as described. Mice were then immediately exposed to 0.4% isoflurane or carrier gas only (100% oxygen) for 30 min. At the 30 minutes, blood glucose, lactate, and β-HB were measured again.

Series [7] relates to control and Ndufs4(KO) mice. As to the kind of experiment: Plasma ALT and AST enzymatic activity assays. The settings on record: 300 mg/kg/day, both genotypes. As to the method: Plasma ALT and AST measures. Small volumes (5-10 μL) of blood were collected using tail-prick and heparinized microhematocrit tubes (Fisher Scientific cat. #22-362566), placed on ice in 15 mL sample tubes, then moved (by pipette) into 1.5 mL microcentrifuge tubes and stored at −80° C. until used for ALT and AST enzymatic assays. ALT and AST were quantified using colorimetric enzymatic activity assay kits (Sigma, cat. #'s MAK052 and MAK055, respectively) according to manufacturer recommendations. Absorbance was measured on a NanoDrop 1000 (ThermoScientific).

Molecules are shown by their SMILES.

The results in this text go back to patent US20230321063A1, “COMPOSITIONS AND METHODS TO REDUCE NEUROINFLAMMATION” (Seattle Children's Hospital d/b/a Seattle Children's …, priority 2020, published 2023).

Consider `FC(F)(F)c1ccc(CNc2ccc(Cc3c[nH]c4ncc(Cl)cc34)cn2)cn1` [pexidartinib, 5-[(5-chloro-1H-pyrrolo[2,3-b]pyridin-3-yl)methyl]-N-[[6-(trifluoromethyl)pyridin-3-yl]methyl]pyridin-2-amine], for which the “clasping, ataxia, circling endpoints compared with mTOR inhibition” value in the series with Ndufs4(KO) mice [1] (200 mg/kg/day) was “roughly matched mTOR inhibition”. Moreover, in the series with Ndufs4(KO) mice [1] (300 mg/kg/day), the “clasping, ataxia, circling endpoints compared with mTOR inhibition” value is “performed substantially better”. In addition, the “neurologic disease onset and severity as measured by clasping” value with Ndufs4(KO) mice [1] (100, 200, and 300 mg/kg/day) was “affect neurologic disease onset and severity”. The “onset of symptoms: forelimb clasping, ataxia, and circling” value with Ndufs4(KO) mice [1] (Ndufs4(KO) mice vs untreated) is “dose-dependently delayed the onset and reduced overall incidence”. Further, the cachexia entry in the series with Ndufs4(KO) mice [2] was “prevented”. Besides, in the series with Ndufs4(KO) mice [3], the “hypoglycemia (blood glucose)” value is “prevented”. The “respiratory dysfunction in normal air” value in the series on Ndufs4(KO) mice [4] (P60) is listed as “completely rescued”. Further, the “respiratory response to increased CO2” value with Ndufs4(KO) mice [4] (P60, 5% CO2) is given as “completely rescued”. Further, the time-to-seizure result in the series on Ndufs4(KO) mice [5] (Ndufs4(KO) mice at P30, rotarod assay) is “markedly reduced”. Moreover, the “incidence of rotarod induced seizures” value in the series on Ndufs4(KO) mice [5] (Ndufs4(KO) mice at P30, untreated 30%) is recorded as “markedly reduced”. Moreover, the “blood lactate spike after isoflurane exposure” value in the series on Ndufs4(KO) mice [6] is on record as “fully suppressed this lactate spike”. In series [7], the ALT level entry is given as “significantly elevated” and the AST level result is “significantly elevated”.
